What was measured:
Experiment in all cases: relative viability (nuclei count vs DMSO), 5 days (fraction); higher = more cells survive
LK-2 = test system: LK-2
How it was run: (§1)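 Relative viability equals treated-well nuclei counts divided by vehicle-well nuclei counts. Counts came from 4× images of lung cancer cell lines grown in 1536-well plates for 5 days after pin-tool dosing on the day after seeding. Dosing used one drug alone or a fixed anchor-drug dose plus five library-drug doses (not always all listed) in √10 steps, and values are medians of duplicate plates.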

HARA = test system: HARA
How it was run: as §1

NCI-H3122 = test system: NCI-H3122
How it was run: as §1

PC-14 = test system: PC-14
How it was run: as §1

NCI-H1666 = test system: NCI-H1666
How it was run: as §1

NCI-H1650 = test system: NCI-H1650
How it was run: as §1

ABC-1 = test system: ABC-1
How it was run: as §1

NCI-H661 = test system: NCI-H661
How it was run: as §1

LOU-NH91 = test system: LOU-NH91
How it was run: as §1

NCI-H2009 = test system: NCI-H2009
How it was run: as §1

BEN = test system: BEN
How it was run: as §1

Structure (SMILES): Nc1ccn([C@@H]2O[C@H](CO)[C@@H](O)[C@@H]2O)c(=O)n1 [Cytarabine] + Nc1ncn([C@H]2C[C@H](O)[C@@H](CO)O2)c(=O)n1 [Decitabine] (partner 2 µM)
- relative viability (LK-2; first compound 0.1581 µM): 0.0989
- relative viability (LK-2; first compound 0.5 µM): 0.132
- relative viability (HARA; first compound 0.005 µM): 0.448
- relative viability (HARA; first compound 0.01581 µM): 0.236
- relative viability (HARA; first compound 0.05 µM): 0.347
- relative viability (HARA; first compound 0.1581 µM): 0.173
- relative viability (HARA; first compound 0.5 µM): 0.18
- relative viability (NCI-H3122; first compound 0.005 µM): 0.459
- relative viability (NCI-H3122; first compound 0.01581 µM): 0.383
- relative viability (NCI-H3122; first compound 0.05 µM): 0.374
- relative viability (NCI-H3122; first compound 0.1581 µM): 0.228
- relative viability (NCI-H3122; first compound 0.5 µM): 0.26
- relative viability (PC-14; first compound 0.005 µM): 0.161
- relative viability (PC-14; first compound 0.01581 µM): 0.0896
- relative viability (PC-14; first compound 0.05 µM): 0.114
- relative viability (PC-14; first compound 0.1581 µM): 0.0408
- relative viability (PC-14; first compound 0.5 µM): 0.0434
- relative viability (NCI-H1666; first compound 0.005 µM): 0.73
- relative viability (NCI-H1666; first compound 0.01581 µM): 0.633
- relative viability (NCI-H1666; first compound 0.05 µM): 0.543
- relative viability (NCI-H1666; first compound 0.1581 µM): 0.523
- relative viability (NCI-H1666; first compound 0.5 µM): 0.455
- relative viability (NCI-H1650; first compound 0.005 µM): 0.294
- relative viability (NCI-H1650; first compound 0.01581 µM): 0.286
- relative viability (NCI-H1650; first compound 0.05 µM): 0.276
- relative viability (NCI-H1650; first compound 0.1581 µM): 0.17
- relative viability (NCI-H1650; first compound 0.5 µM): 0.172
- relative viability (ABC-1; first compound 0.005 µM): 1.13
- relative viability (ABC-1; first compound 0.01581 µM): 1.02
- relative viability (ABC-1; first compound 0.05 µM): 0.925
- relative viability (ABC-1; first compound 0.1581 µM): 0.786
- relative viability (ABC-1; first compound 0.5 µM): 0.611
- relative viability (NCI-H661; first compound 0.005 µM): 0.556
- relative viability (NCI-H661; first compound 0.01581 µM): 0.509
- relative viability (NCI-H661; first compound 0.05 µM): 0.519
- relative viability (NCI-H661; first compound 0.1581 µM): 0.422
- relative viability (NCI-H661; first compound 0.5 µM): 0.295
- relative viability (LOU-NH91; first compound 0.005 µM): 0.751
- relative viability (LOU-NH91; first compound 0.01581 µM): 0.742
- relative viability (LOU-NH91; first compound 0.05 µM): 0.696
- relative viability (LOU-NH91; first compound 0.1581 µM): 0.545
- relative viability (LOU-NH91; first compound 0.5 µM): 0.491
- relative viability (NCI-H2009; first compound 0.005 µM): 0.325
- relative viability (NCI-H2009; first compound 0.01581 µM): 0.363
- relative viability (NCI-H2009; first compound 0.05 µM): 0.342
- relative viability (NCI-H2009; first compound 0.1581 µM): 0.243
- relative viability (NCI-H2009; first compound 0.5 µM): 0.189
- relative viability (BEN; first compound 0.005 µM): 0.675
- relative viability (BEN; first compound 0.01581 µM): 0.558
- relative viability (BEN; first compound 0.05 µM): 0.43
- relative viability (BEN; first compound 0.1581 µM): 0.345
- relative viability (BEN; first compound 0.5 µM): 0.31
